Experimental data taken from ChEMBL document CHEMBL5316287 (J Med Chem, 2023).
pIC50: −log10 of the molar value.

How the values were obtained:
VCaP [1] = test: Antitumor activity against human VCaP cells xenografted in castrated NSG mouse assessed as tumor growth inhibition at 3 mg/kg,po qd for 33 days consecutively; type: functional; conditions: 792 h, time 33 day, read-out: TGI
[2] = molecular target: Histone acetyltransferase p300 (Homo sapiens, UniProt Q09472); test: Inhibition of EP300 in human LK2 cells assessed as reduction in intracellular H3K27 acetylation incubated for 3 hrs by chemiluminescence based ELISA; type: cell-based
VCaP [3] = test: Inhibition of H3K27 acetylation in AR-positive human VCaP cells at 3.9 to 1000 nM incubated for 72 hrs by Western blot analysis; type: functional, cell-based; conditions: dose 3.9-1000 nM
LNCaP [4] = test: Downregulation of PSA expression in AR-positive human LNCaP cells at 3.9 to 1000 nM incubated for 72 hrs by Western blot analysis; type: functional, cell-based; conditions: dose 3.9-1000 nM
PC-3 = test: Antiproliferative activity against AR-negative human PC-3 cells assessed as cell growth inhibition incubated for 7 days by CellTiter-Glo assay; type: functional; conditions: PC-3, 168 h, time 7 day
LNCaP [5] = test: Inhibition of H3K18 acetylation in AR-positive human LNCaP cells at 3.9 to 1000 nM incubated for 72 hrs by Western blot analysis; type: functional, cell-based; conditions: dose 3.9-1000 nM
[6] = Metabolic stability in mouse liver microsomes assessed as intrinsic clearance at 1 uM; type: ADME, Microsome
[7] = molecular target: Histone acetyltransferase KAT7 (Homo sapiens, UniProt O95251); test: Inhibition of MYST2 (unknown origin) biotinylated H4 (1 to 25)-GSGSK peptide as substrate incubated for 1 hr in presence of acetyl-coA by AlphaLISA assay
Histone acetyltransferase KAT7, sequence (O95251 whole entry): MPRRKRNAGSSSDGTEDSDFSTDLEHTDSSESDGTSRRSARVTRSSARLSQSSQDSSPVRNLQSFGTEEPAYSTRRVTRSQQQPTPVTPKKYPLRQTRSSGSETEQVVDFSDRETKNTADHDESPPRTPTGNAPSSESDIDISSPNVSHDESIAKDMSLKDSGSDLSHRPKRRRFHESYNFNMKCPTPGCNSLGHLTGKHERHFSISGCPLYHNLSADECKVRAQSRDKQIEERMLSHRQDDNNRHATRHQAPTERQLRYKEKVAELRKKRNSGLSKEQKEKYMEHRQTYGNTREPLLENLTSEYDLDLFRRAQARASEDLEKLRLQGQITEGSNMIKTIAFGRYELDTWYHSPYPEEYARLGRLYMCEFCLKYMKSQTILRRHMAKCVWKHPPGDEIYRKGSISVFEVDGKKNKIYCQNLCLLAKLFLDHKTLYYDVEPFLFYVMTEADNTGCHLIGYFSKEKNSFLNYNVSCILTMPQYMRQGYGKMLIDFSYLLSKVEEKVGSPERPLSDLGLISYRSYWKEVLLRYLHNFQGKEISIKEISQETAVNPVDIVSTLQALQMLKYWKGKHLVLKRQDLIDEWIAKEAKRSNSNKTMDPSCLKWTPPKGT

[8] = Cmax in BALB/cAnNCrlCrlj mouse at 10 mg/kg,po; type: ADME, organism-based; parameters: dose 10 mg/kg, route po; conditions: in vivo
VCaP [9] = test: Downregulation of PSA expression in AR-positive human VCaP cells at 3.9 to 1000 nM incubated for 72 hrs by Western blot analysis; type: functional, cell-based; conditions: dose 3.9-1000 nM
CREB-binding protein = CREB-binding protein (Homo sapiens, UniProt Q92793); test: Inhibition of CBP (unknown origin) biotinylated H4 (1 to 25)-GSGSK peptide as substrate incubated for 1 hr in presence of acetyl-coA by AlphaLISA assay
CWR22R = test: Antiproliferative activity against AR-positive human 22Rv1 cells assessed as cell growth inhibition incubated for 7 days by CellTiter-Glo assay; type: functional; conditions: 22Rv1, 168 h, time 7 day
[10] = molecular target: Histone acetyltransferase KAT2A (Homo sapiens, UniProt Q92830); test: Inhibition of GCN5 (unknown origin) biotinylated H3 (1 to […])-GGK peptide as substrate incubated for 1 hr in presence of acetyl-coA by AlphaLISA assay
Histone acetyltransferase KAT2A, sequence (Q92830 whole entry): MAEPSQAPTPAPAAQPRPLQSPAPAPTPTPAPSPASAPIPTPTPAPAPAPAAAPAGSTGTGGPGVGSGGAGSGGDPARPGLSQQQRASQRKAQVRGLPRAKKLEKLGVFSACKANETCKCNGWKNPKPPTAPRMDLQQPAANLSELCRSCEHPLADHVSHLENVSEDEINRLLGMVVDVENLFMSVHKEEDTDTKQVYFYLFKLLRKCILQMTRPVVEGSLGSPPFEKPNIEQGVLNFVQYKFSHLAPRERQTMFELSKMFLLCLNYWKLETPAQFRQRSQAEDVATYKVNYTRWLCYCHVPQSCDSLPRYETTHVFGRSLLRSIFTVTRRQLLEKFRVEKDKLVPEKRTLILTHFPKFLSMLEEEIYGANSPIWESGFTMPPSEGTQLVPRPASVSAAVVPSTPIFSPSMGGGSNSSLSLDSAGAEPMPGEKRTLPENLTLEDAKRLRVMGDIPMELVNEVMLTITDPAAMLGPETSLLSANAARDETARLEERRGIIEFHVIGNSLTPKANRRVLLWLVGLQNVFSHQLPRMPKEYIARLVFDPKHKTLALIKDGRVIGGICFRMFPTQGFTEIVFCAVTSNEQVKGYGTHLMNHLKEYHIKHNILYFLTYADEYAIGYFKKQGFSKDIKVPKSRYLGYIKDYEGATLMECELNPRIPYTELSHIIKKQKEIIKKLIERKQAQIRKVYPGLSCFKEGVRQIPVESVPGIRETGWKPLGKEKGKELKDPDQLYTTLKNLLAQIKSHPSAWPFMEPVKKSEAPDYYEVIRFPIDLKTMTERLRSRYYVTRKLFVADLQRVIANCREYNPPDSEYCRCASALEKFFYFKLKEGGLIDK

[11] = 1-Octanol/PBS partition coefficient, logD of the compound at pH 7.4 incubated for 30 mins by shake flask technique based HPLC-LC/MS analysis; type: physicochemical
[12] = Oral bioavailability in BALB/cAnNCrlCrlj mouse at 10 mg/kg; type: ADME, organism-based; conditions: in vivo, po, 10 mg/kg
VCaP [13] = test: Antitumor activity against human VCaP cells xenografted in castrated NSG mouse assessed as tumor growth inhibition at 0.3 mg/kg,po qd for 33 days consecutively; type: functional; conditions: 792 h, time 33 day, read-out: TGI
[14] = Half life in BALB/cAnNCrlCrlj mouse at 10 mg/kg,po; type: ADME, organism-based; conditions: in vivo
[15] = molecular target: Histone acetyltransferase KAT6B (Homo sapiens, UniProt Q8WYB5); test: Inhibition of MYST4 (unknown origin) biotinylated H4 (1 to 25)-GSGSK peptide as substrate incubated for 1 hr in presence of acetyl-coA by AlphaLISA assay
Histone acetyltransferase KAT6B, sequence (Q8WYB5 whole entry): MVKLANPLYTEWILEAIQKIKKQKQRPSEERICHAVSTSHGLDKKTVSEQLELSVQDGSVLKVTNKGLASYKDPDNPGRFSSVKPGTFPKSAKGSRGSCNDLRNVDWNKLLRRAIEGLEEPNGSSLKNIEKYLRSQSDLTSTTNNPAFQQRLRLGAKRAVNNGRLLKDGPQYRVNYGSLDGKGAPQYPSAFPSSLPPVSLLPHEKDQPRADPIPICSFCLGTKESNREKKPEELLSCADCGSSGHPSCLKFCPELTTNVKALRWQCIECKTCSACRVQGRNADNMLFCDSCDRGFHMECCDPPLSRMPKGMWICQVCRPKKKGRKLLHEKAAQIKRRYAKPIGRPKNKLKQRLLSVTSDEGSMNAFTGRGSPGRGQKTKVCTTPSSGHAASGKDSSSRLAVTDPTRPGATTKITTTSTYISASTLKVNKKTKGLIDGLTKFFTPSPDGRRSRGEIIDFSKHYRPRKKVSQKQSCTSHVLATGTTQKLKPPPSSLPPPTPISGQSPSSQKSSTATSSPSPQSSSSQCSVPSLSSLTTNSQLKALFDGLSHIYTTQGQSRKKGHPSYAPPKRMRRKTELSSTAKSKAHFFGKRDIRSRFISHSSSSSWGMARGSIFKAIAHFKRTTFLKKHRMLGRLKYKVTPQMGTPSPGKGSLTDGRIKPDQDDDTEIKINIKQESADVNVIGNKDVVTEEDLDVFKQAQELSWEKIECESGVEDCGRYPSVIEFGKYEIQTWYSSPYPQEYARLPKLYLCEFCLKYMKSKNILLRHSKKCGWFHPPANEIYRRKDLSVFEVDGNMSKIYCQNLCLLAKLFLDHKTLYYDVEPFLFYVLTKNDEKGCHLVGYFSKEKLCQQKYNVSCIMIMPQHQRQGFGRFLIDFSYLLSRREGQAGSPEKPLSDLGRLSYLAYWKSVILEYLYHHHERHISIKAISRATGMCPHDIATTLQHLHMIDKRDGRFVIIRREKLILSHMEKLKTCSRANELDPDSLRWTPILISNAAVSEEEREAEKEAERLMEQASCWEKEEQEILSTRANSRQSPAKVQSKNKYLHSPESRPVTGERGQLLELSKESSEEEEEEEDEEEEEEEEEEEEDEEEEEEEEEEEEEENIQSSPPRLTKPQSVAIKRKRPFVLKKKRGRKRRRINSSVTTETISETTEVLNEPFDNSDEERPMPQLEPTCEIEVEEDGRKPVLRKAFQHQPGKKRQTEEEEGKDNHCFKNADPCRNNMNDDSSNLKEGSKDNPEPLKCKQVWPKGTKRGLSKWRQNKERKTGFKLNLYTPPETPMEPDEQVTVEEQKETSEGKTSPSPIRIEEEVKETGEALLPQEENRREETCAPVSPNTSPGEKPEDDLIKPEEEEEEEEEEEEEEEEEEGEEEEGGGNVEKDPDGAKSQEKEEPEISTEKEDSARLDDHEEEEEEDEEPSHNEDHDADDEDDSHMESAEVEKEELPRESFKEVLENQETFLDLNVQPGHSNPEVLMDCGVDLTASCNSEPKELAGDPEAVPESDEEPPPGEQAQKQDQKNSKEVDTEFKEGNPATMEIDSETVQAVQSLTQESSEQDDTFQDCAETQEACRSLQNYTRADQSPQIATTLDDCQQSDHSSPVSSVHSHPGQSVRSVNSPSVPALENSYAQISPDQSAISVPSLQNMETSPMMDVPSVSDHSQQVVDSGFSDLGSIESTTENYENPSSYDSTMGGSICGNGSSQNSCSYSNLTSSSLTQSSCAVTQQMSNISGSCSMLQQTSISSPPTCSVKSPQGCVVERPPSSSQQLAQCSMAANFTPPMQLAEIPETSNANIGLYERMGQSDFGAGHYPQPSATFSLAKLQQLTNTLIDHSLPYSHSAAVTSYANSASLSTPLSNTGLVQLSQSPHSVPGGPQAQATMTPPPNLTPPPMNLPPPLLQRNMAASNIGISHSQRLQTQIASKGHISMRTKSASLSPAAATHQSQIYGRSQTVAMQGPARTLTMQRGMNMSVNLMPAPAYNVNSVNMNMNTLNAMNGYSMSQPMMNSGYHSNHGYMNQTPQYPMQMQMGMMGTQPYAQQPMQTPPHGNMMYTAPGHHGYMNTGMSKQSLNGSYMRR

VCaP [16] = test: Antitumor activity against human VCaP cells xenografted in castrated NSG mouse assessed as tumor growth inhibition at 1 mg/kg,po qd for 33 days consecutively; type: functional; conditions: 792 h, time 33 day, read-out: TGI
VCaP [17] = test: Inhibition of H3K18 acetylation in AR-positive human VCaP cells at 3.9 to 1000 nM incubated for 72 hrs by Western blot analysis; type: functional, cell-based; conditions: dose 3.9-1000 nM
[18] = AUC in BALB/cAnNCrlCrlj mouse at 10 mg/kg,po; type: ADME, organism-based; parameters: dose 10 mg/kg, route po; conditions: in vivo
[19] = Unbound AUC in BALB/cAnNCrlCrlj mouse at 10 mg/kg,po; type: ADME, organism-based; conditions: in vivo
LNCaP [20] = test: Antiproliferative activity against AR-positive human LNCaP cells assessed as cell growth inhibition incubated for 7 days by CellTiter-Glo assay; type: functional; conditions: 168 h, time 7 day
[21] = Unbound clearance in BALB/cAnNCrlCrlj mouse at 1 mg/kg,iv administered as DMA/Tween80/saline (1:1:8 ratio) solution; type: ADME, organism-based; conditions: in vivo
[22] = Metabolic stability in human liver microsomes assessed as intrinsic clearance at 1 uM; type: ADME, Microsome
[23] = molecular target: Histone acetyltransferase KAT5 (Homo sapiens, UniProt Q92993); test: Inhibition of TIP60 (unknown origin) biotinylated H4 (1 to 25)-GSGSK peptide as substrate incubated for 1 hr in presence of acetyl-coA by AlphaLISA assay
Histone acetyltransferase KAT5, sequence (Q92993 whole entry): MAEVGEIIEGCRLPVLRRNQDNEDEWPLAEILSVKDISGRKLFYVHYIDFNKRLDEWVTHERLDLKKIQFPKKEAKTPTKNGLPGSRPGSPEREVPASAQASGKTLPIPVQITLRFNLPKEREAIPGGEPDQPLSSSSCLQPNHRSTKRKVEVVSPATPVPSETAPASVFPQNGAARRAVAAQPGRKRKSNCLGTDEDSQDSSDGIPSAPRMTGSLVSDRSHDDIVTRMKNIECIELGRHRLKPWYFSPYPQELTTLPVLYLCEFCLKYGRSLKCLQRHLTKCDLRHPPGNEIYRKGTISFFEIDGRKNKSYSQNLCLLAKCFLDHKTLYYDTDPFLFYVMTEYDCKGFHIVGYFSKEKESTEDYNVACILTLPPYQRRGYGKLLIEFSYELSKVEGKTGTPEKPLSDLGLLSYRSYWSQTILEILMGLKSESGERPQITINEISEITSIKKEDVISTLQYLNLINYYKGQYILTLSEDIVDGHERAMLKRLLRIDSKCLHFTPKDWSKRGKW

VCaP [24] = test: Antiproliferative activity against AR-positive human VCaP cells assessed as cell growth inhibition incubated for 7 days by CellTiter-Glo assay; type: functional; conditions: 168 h, time 7 day
LNCaP [25] = test: Inhibition of H3K27 acetylation in AR-positive human LNCaP cells at 3.9 to 1000 nM incubated for 72 hrs by Western blot analysis; type: functional, cell-based; conditions: dose 3.9-1000 nM
[26] = Toxicity in castrated NSG mouse xenografted with human VCaP cells assessed as mortality at 0.3 to 3 mg/kg,po qd for 33 days consecutively; type: organism-based; conditions: in vivo, 792 h, dose 0.3-3 mg/kg, time 33 day
[27] = Volume of distribution at steady state in BALB/cAnNCrlCrlj mouse at 1 mg/kg,iv administered as DMA/Tween80/saline (1:1:8 ratio) solution; type: ADME, organism-based; conditions: in vivo, read-out: Vdss
VCaP [28] = test: Antitumor activity against human VCaP cells xenografted in castrated NSG mouse assessed as decrease in plasma PSA expression at 0.3 to 3 mg/kg,po qd for 33 days consecutively and measured after 6 hrs by ELISA; type: functional, organism-based; conditions: dose 0.3-3 mg/kg, time 33.0 day
[29] = molecular target: Histone acetyltransferase KAT2B (Homo sapiens, UniProt Q92831); test: Inhibition of PCAF (unknown origin) biotinylated H3 (1 to […])-GGK peptide as substrate incubated for 1 hr in presence of acetyl-coA by AlphaLISA assay
Histone acetyltransferase KAT2B, sequence (Q92831 whole entry): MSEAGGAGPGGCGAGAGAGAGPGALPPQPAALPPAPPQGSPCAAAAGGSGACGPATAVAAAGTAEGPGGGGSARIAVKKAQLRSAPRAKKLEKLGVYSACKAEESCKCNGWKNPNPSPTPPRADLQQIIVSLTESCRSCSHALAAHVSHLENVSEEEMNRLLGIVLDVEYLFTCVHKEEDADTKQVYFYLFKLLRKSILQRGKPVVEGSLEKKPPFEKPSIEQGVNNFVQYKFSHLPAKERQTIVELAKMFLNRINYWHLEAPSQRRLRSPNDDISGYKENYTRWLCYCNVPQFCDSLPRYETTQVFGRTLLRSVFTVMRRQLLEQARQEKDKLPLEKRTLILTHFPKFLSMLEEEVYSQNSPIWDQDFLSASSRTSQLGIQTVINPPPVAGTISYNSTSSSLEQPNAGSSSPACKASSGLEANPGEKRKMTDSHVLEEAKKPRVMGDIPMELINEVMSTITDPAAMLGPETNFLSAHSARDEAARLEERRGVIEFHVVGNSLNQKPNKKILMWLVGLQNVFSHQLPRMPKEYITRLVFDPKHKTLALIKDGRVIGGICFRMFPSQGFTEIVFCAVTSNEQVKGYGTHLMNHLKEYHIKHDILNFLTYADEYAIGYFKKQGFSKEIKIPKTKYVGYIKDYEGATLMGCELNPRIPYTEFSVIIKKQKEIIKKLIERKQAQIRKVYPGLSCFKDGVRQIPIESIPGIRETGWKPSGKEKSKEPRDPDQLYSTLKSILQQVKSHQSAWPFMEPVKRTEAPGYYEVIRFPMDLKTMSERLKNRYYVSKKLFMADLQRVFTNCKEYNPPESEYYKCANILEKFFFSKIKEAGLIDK

[30] = Toxicity in castrated NSG mouse xenografted with human VCaP cells assessed as body weight loss at 0.3 to 3 mg/kg,po qd for 33 days consecutively; type: organism-based; conditions: in vivo, 792 h, dose 0.3-3 mg/kg, time 33 day

Question: Which results are given for COc1ccc(C2(C(=O)N3C[C@H](F)C[C@@H]3C(=O)Nc3ccc4[nH]ncc4n3)CCC(F)(F)CC2)cc1?
Answer: inhibition in vivo at 3 mg/kg (VCaP [1]): 109%; pIC50 [2]: 7.27; inhibition (VCaP [3]): Dose-Dependent Effect; Activity (LNCaP [4]): Dose-Dependent Effect; GI50 (PC-3): 287 nM; inhibition (LNCaP [5]): Dose-Dependent Effect; intrinsic clearance (CLint) [6]: 50 µL/min/mg; pIC50 [7]: < 4.30; Cmax [8]: 34 µM; Activity (VCaP [9]): Dose-Dependent Effect; pIC50 (CREB-binding protein): 9.00; GI50 (CWR22R): 6.5 nM; pIC50 [10]: < 4.30; logD at 0.5 h [11]: 3; F [12]: 21%; inhibition in vivo at 0.3 mg/kg (VCaP [13]): 39%; half-life [14]: 2.4 h; pIC50 [15]: < 4.30; inhibition in vivo at 1 mg/kg (VCaP [16]): 74%; inhibition (VCaP [17]): Dose-Dependent Effect; AUC [18]: 130 µM·h; fAUC [19]: 5.33 µM·h; GI50 (LNCaP [20]): 3.4 nM; CL free [21]: 39 mL/min/kg; intrinsic clearance [22]: 50 µL/min/mg; pIC50 [23]: < 4.30; GI50 (VCaP [24]): 0.6 nM; inhibition (LNCaP [25]): Dose-Dependent Effect; Activity [26]: Non-Toxic; Vd [27]: 0.14 L/kg; Activity (VCaP [28]): Dose-Dependent Effect; pIC50 [29]: < 4.30; Activity [30]: Non-Toxic
